Test results taken from publication PMC10649063, “Optimization of a Novel Tyrosinase Inhibitory Peptide from Atrina pectinata Mantle and Its Molecular Inhibitory Mechanism” (Foods, 2023).
“Also recorded” adds a separate entry of the source. Like-named read-outs stand apart in the source and are kept apart here. Peptide text beside a SMILES is read from it.

Tests used:
[1] = target: Mushroom tyrosinase (Agaricus bisporus) (UniProt C7FF04)
[2] = target: Mushroom tyrosinase (Agaricus bisporus) (UniProt C7FF04); test: enzyme inhibition kinetics (Lineweaver-Burk); tyrosinase with L-tyrosine as substrate; KI and KIS from the slope ratio and intercept ratio of the Lineweaver-Burk lines with and without YYP; YYP 1 mM
[3] = target: Mushroom tyrosinase (Agaricus bisporus) (UniProt C7FF04); test: enzyme inhibition kinetics (Lineweaver-Burk); tyrosinase with L-tyrosine as substrate; KI and KIS from the slope ratio and intercept ratio of the Lineweaver-Burk lines with and without YYP; YYP 0.5 mM
[4] = target: Mushroom tyrosinase (Agaricus bisporus) (UniProt C7FF04); test: enzyme inhibition kinetics (Lineweaver-Burk); tyrosinase with L-tyrosine as substrate; KI and KIS from the slope ratio and intercept ratio of the Lineweaver-Burk lines with and without YYP; YYP 2 mM
Mushroom tyrosinase = target: T1, Mushroom tyrosinase (Agaricus bisporus, UniProt C7FF04); test: Tyrosinase inhibitory activity (L-tyrosine substrate, absorbance at 475 nm); assay type: biochemical
T1 construct: purchased Beijing Solarbio Biotechnology Co., Ltd
T1 sequence (C7FF04 1-392 limits assumed): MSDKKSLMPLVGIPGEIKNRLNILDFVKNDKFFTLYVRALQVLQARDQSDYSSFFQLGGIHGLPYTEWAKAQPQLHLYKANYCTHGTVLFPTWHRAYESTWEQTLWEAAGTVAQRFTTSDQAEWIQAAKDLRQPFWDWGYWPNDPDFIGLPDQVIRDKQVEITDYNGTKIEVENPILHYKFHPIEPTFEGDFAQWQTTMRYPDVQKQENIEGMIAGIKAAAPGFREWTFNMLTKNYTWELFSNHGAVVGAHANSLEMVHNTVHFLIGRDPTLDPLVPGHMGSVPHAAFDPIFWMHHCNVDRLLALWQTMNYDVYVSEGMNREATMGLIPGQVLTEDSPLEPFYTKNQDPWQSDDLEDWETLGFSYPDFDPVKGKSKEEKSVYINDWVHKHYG
Protocol: Tyrosinase inhibitory activity was determined in conformity with. With reference to the reagent addition in Table 1, we added phosphate buffer solution (PBS, pH 6.8, 0.1 mol/L), sample solutions and L-tyrosine solution (L-Tyr, 0.5 mg/mL, pH 6.8 in PBS) to each well in a 96-well plate. These were mixed well and incubated at 37 °C for 10 min. Then, 20 μL of mushroom tyrosinase solution (500 U/mL) was added, mixed and reacted at 37 °C for 15 min, and monitored at 475 nm. The tyrosinase inhibition rate (Y) was calculated as follows:(1) Y=(1−A4−A3/A2−A1)×100% where A4 is the absorbance of the reaction well of the sample, A3 is the absorbance value of the sample background well, A2 is the absorption value of the solvent reaction well and A1 is the absorbance of the solvent background well.

tyrosinase = target: T2, tyrosinase (Agaricus bisporus, UniProt C7FF04); test: Enzyme inhibition kinetic assay (enzyme concentration vs. rate, Lineweaver–Burk plots); assay type: biochemical, mushroom; conditions: for Ki: Inhibition Constant KI (mM), enzyme–inhibitor complex; for Inhibition Constant KIS: enzyme–inhibitor–substrate complex
T2 construct: purchased Beijing Solarbio Biotechnology Co., Ltd
Source text: The Lineweaver–Burk double-inverse curve was obtained by taking the reciprocal of the substrate concentration (1/[S]) as the horizontal coordinate and the reciprocal of the initial reaction rate (1/V) as the vertical coordinate to determine the type of inhibition and to calculate the Mie constant (KM) and the maximum reaction rate (Vmax).
To elucidate the mechanism of inhibition of tyrosinase by YYP, kinetic studies were used to investigate the kinetic characterization of the inhibitory response (Figure 6).
The Lineweaver–Burk double-inverse plot of the inhibitory effect of YYP on tyrosinase is illustrated in Figure 6. The 1/V were both fitted linearly to the 1/[S] (R^2 and p-values shown in Table 10) and intersected in the second quadrant of the graph. As the amount of YYP increased, the value of KM increased and the value of Vmax decreased.
The mixed-inhibitory type inhibits tyrosinase via two distinct pathways: competitively forming enzyme–inhibitor (EI) complexes and interrupting enzyme–substrate–inhibitor (ESI) complexes in a noncompetitive manner. The inhibition constant KI or KIS is the dissociation constant for the dissociation of the inhibitor (I) from the EI complexs or the enzyme–inhibitor–substrate (EIS) complexs. Both baicalein and cinnamic acid derivatives are reversible mixed-type inhibitors. […] Summarized in Table 10, based on the slope ratio and intercept ratio of the Lineweaver–Burk curve (with and without the presence of samples), the KI and KIS can be obtained.

[5] = synthetic peptides, read-out: Tyrosinase Inhibitory Activity (IC50)

Pro-Tyr-Leu-Lys (PYLK) (peptide) was tested, and the Tyrosinase Inhibitory Activity (IC50, mM); oxidation of L-tyrosine by mushroom tyrosinase read at 475 nm [1] was > 10 mM.

Molecule Tyr-Tyr-Pro (YYP) (peptide) has a KIS (inhibitor from the enzyme-inhibitor-substrate complex) [2] of 11.4 mM, a KIS (inhibitor from the enzyme-inhibitor-substrate complex) [3] of 8.38 mM and a Tyrosinase Inhibitory Activity (IC50, mM); oxidation of L-tyrosine by mushroom tyrosinase read at 475 nm [1] of 1.76 mM. It also gave a KIS (inhibitor from the enzyme-inhibitor-substrate complex) [4] of 12.1 mM.

`O=C(O)[C@H](Cc1ccccc1)NC(=O)[C@H](Cc1c[nH]cn1)NC(=O)[C@H](Cc1c[nH]cn1)NC(=O)[C@@H]1CCCN1` [PHHF, Pro-His-His-Phe] (H-PHHF-OH; N-terminus and C-terminus assumed) was tested, and the IC50 (Mushroom tyrosinase; [5]) was > 10000 µM.

`CC(C)C[C@H](NC(=O)[C@H](Cc1ccc(O)cc1)NC(=O)[C@@H]1CCCN1)C(=O)N[C@@H](CCCCN)C(=O)O` [PYLK, Pro-Tyr-Leu-Lys] (H-PYLK-OH; N-terminus and C-terminus assumed) was tested, and the IC50 (Mushroom tyrosinase; [5]) was > 10000 µM.

With `N[C@@H](Cc1ccc(O)cc1)C(=O)N[C@@H](Cc1ccc(O)cc1)C(=O)N1CCC[C@H]1C(=O)O` [YYP, Tyr-Tyr-Pro] (H-Tyr-Tyr-Pro-OH; N-terminus and C-terminus assumed) the IC50 (Mushroom tyrosinase) was 1760 ± 25 µM, the Ki (tyrosinase; YYP 0.5 mM) was 0.245 mM and the Ki (tyrosinase; YYP 1 mM) was 0.283 mM. The Ki (tyrosinase; YYP 2 mM) was 0.428 mM, the “Type of tyrosinase inhibition” value (tyrosinase; Lineweaver–Burk analysis) was “mixture of noncompetitive and competitive types; also recorded: mixed type of inhibition; also recorded: hybrid” and the “Maximum Reaction Speed Vmax (A475/min)” value (tyrosinase; YYP 0.5 mM) was 0.0212 A475/min. The “Inhibition Constant KIS” value (tyrosinase; YYP 0.5 mM) was 8.3833 mM, the “Maximum Reaction Speed Vmax (A475/min)” value (tyrosinase; YYP 1 mM) was 0.0206 A475/min and the “Inhibition Constant KIS” value (tyrosinase; YYP 1 mM) was 11.4139 mM. The “Maximum Reaction Speed Vmax (A475/min)” value (tyrosinase; YYP 2 mM) was 0.0192 A475/min, the “Inhibition Constant KIS” value (tyrosinase; YYP 2 mM) was 12.1276 mM and the “Reversibility of tyrosinase inhibition” value (tyrosinase; enzyme concentration vs. initial rate at different YYP concentrations) was “reversible”.

With `CC(C)[C@H](NC(=O)[C@H](CCCNC(=N)N)NC(=O)[C@@H](N)Cc1ccccc1)C(=O)N[C@@H](CCCCN)C(=O)O` [FRVK, Phe-Arg-Val-Lys] (H-FRVK-OH; N-terminus and C-terminus assumed) the IC50 (Mushroom tyrosinase; [5]) was 5870 ± 68 µM.

For FRVK [Phe-Arg-Val-Lys (FRVK)], the Tyrosinase Inhibitory Activity (IC50, mM); oxidation of L-tyrosine by mushroom tyrosinase read at 475 nm [1] was 5.87 mM.

For PHHF [Pro-His-His-Phe (PHHF)], the Tyrosinase Inhibitory Activity (IC50, mM); oxidation of L-tyrosine by mushroom tyrosinase read at 475 nm [1] was > 10 mM.
